Results taken from PubChem BioAssay (NCI).
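A five-concentration, 48-hour dose response in 96-well plates underlies each endpoint, interpolated linearly between surrounding concentrations. TGI: concentration producing complete growth inhibition.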

Legend:
Assay in all cases: growth of human tumour cells (NCI), 48 h
[1] = tested on: LOX IMVI melanoma
[2] = tested on: TK-10 renal
[3] = tested on: SK-MEL-5 melanoma
[4] = tested on: MALME-3M melanoma
[5] = tested on: ACHN renal
[6] = tested on: SK-OV-3 ovarian
[7] = tested on: RXF-631 renal
[8] = tested on: LXFL 529 NSCLC
[9] = tested on: NCI-H226 lung
[10] = tested on: RXF 393 renal
[11] = tested on: COLO 205 colon
[12] = tested on: K-562 leukemia
[13] = tested on: NCI-H23 lung
[14] = tested on: A498 renal
[15] = tested on: UACC-257 melanoma
[16] = tested on: CAKI-1 renal
[17] = tested on: 786-0 renal
[18] = tested on: UACC-62 melanoma
[19] = tested on: HL-60(TB) leukemia
[20] = tested on: M19-MEL melanoma
[21] = tested on: OVCAR-8 ovarian
[22] = tested on: HT29 colon
[23] = tested on: IGROV1 ovarian
[24] = tested on: SK-MEL-2 melanoma
[25] = tested on: SF-539 CNS
[26] = tested on: SNB-78 CNS
[27] = tested on: MOLT-4 leukemia
[28] = tested on: SF-295 CNS
[29] = tested on: UO-31 renal
[30] = tested on: SF-268 CNS
[31] = tested on: KM20L2 colon
[32] = tested on: SW-620 colon
[33] = tested on: HCT-15 colon
[34] = tested on: NCI-H522 lung
[35] = tested on: OVCAR-5 ovarian
[36] = tested on: DLD-1 colon
[37] = tested on: EKVX NSCLC
[38] = tested on: HCT-116 colon
[39] = tested on: DMS 273 small cell lung
[40] = tested on: M14 melanoma
[41] = tested on: SNB-75 CNS
[42] = tested on: XF 498 CNS
[43] = tested on: HOP-92 NSCLC
[44] = tested on: OVCAR-3 ovarian
[45] = tested on: SN12C renal
[46] = tested on: SNB-19 CNS
[47] = tested on: OVCAR-4 ovarian
[48] = tested on: A549 NSCLC
[49] = tested on: DMS 114 small cell lung
[50] = tested on: SK-MEL-28 melanoma
[51] = tested on: RPMI-8226 leukemia
[52] = tested on: CCRF-CEM leukemia
[53] = tested on: KM12 colon
[54] = tested on: HOP-62 NSCLC
[55] = tested on: HOP-18 NSCLC
[56] = tested on: U251 CNS
[57] = tested on: SR leukemia
[58] = tested on: NCI-H460 lung
[59] = tested on: HCC-2998 colon

Measured: TGI

O=C(CC1(O)C(=O)Nc2ccccc21)c1ccc(Cl)cc1Cl (stereo unspecified)
not listed: [52] | [53] | [54] | [55] | [56] | [57] | [58] | [59]
> 100 µM: all other assays above

CCCCCCCC(=O)OCC1OC(n2cc(F)c(=O)[nH]c2=O)C(N)C(O)C1O (stereo unspecified)
not listed: [1] | [2] | [7] | [42]
> 100 µM: all other assays above
